Results on five molecules are retold here after paper PMC11944621, “Synthesis, Molecular Simulation, DFT, and Kinetic Study of Imidazotriazole-Based Thiazolidinone as Dual Inhibitor of Acetylcholinesterase and Butyrylcholinesterase Enzymes” (Pharmaceuticals, 2025).

Experiment [1] has as its target T1, BChE (Homo sapiens, UniProt P06276). As to conditions: cited from earlier work.
The target of experiment [2] is T2, AChE (Homo sapiens, UniProt P22303). As to conditions: previously reported thiazolidinone analog; read-out: IC50 against AChE; cited from earlier work.
T2 sequence (P22303 32-614): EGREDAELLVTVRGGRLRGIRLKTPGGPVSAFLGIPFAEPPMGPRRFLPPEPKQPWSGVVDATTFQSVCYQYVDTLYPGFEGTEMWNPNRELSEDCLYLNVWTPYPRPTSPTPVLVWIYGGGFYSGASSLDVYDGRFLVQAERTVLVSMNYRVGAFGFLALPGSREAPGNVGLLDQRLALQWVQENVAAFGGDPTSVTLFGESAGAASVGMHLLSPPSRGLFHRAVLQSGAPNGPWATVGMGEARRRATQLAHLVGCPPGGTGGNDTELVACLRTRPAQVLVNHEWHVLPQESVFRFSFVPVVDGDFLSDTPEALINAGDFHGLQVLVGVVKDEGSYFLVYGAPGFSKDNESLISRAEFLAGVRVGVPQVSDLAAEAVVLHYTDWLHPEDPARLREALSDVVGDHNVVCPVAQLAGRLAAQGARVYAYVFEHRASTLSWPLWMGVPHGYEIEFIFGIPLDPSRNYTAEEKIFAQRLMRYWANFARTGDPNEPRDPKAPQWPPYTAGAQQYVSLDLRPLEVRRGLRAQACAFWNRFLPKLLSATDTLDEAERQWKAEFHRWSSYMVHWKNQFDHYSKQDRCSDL
The target in experiment [3] is T2, AChE. Nature of the experiment: biochemical. As to conditions: in vitro, triplicate; read-out: AchE IC50 ± SEM. How it is done:
(§1) With some modifications, inhibitory potential against AChE and BuChE was investigated according to the reported protocol. […] Added test compound (well-1) with volume of 10 µL and a concentration of 0.5 mM followed by the addition of an enzyme of 10 µL (0.005 unit well-1). Pre-incubation of substances at 37 °C for 10 min was achieved. Reaction was started by adding 10 µL of 0.5 mM well-1 substrate (acetylthiocholine iodide/ butyrylthiochloine chloride) followed by addition of 10 µL DTNB (0.5 mM well-1). […] All experiments were performed with their respective controls in triplicate. […] The % inhibition was computed using the following equation:Inhibition (%) = Control − Test/control × 100 […]
(§2) S.2 AChE and BuChE assay protocols
(§3) With a little bit modification, inhibitory potential against AChE and BuChE was investigated according to the reported protocol. The total volume of the reaction mixture was kept at 100 µL, […]
(§4) compound (well-1) with volume of 10µL and a concentration of 0.5mM followed by the addition of an enzyme of 10 µL (0.005 unit well-1). Pre-incubation of substances at 37 °C for 10 min was achieved. Reaction was started by addition of 10µL of 0.5mM well-1 substrate (acetylthiocholine iodide/ butyrylthiochloine chloride) followed by addition of 10µL DTNB (0.5mM well-1).
(§5) Synergy HT, BioTek, US. All experiments were done with their respective controls in triplicate.
(§6) The % inhibition was computed using the following equation
(§7) Inhibition (%) = Control – Test/control x 100
(§8) Control EZ-Fit Enzyme kinetics software (Perrella Scientific Inc. Amherst, USA) was used for the calculation of IC50 values. […]

The target in experiment [4] is T1, BChE. Nature of the experiment: biochemical. To be noted: in vitro, triplicate; read-out: BChE IC50 ± SEM. On the procedure:
as §1, §2, §3, §4, §5, §6, §7, §8

For experiment [5], the system named is enzyme. Nature of the experiment: Enzyme kinetics (mode of inhibition). The class given is biochemical. The source says: This is an in vitro approach, which measures the initial inhibition rate with the change in the inhibitor concentration.

As usually defined, the IC50 is the concentration needed to halve the response being measured.

Read-outs that look alike come from different tables or passages of the source.

T1 sequence (P06276 29-602): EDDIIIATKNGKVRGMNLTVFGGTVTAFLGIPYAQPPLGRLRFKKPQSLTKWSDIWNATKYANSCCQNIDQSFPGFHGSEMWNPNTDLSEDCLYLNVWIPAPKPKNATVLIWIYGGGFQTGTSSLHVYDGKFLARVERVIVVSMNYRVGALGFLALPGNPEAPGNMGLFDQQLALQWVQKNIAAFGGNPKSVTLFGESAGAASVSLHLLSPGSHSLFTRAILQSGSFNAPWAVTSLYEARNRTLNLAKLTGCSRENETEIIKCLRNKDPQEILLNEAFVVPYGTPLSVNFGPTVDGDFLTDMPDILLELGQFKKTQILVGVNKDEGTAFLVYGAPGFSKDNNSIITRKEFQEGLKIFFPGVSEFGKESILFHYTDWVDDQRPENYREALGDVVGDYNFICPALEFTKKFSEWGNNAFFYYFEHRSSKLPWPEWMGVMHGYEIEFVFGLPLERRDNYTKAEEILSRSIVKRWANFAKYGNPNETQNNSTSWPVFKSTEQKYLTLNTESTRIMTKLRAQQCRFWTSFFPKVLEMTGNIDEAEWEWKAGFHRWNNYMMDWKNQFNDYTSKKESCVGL

Take `Cc1ccc(-c2cn(Cc3ccc4ccccc4c3)nn2)cc1C(=O)NCCN1CCOCC1` [2-methyl-N-(2-morpholinoethyl)-5-(1-(naphthalen-2-ylmethyl)-1H-1,2,3-triazol-4-yl)benzamide]: the IC50 in experiment [1] (read-out: IC50 for BChE, previously reported triazole analog) was 90.76 ± 0.21 µM.
With `O=C1/C(=C\c2ccc(N3CCCC3)cc2)S/C(=N/N2CCOCC2)N1c1ccccc1` [(E)-2-(morpholinoimino)-3-phenyl-5-((E)-4-(pyrrolidin-1-yl)benzylidene)thiazolidin-4-one], the IC50 in experiment [2] was 17.4 ± 0.22 µM; in experiment [1] (previously reported thiazolidinone analog, read-out: IC50 against BChE) it was 24.4 ± 0.51 µM.
Take `COc1cc(-c2nnc3[nH]ccn23)ccc1N1C(=O)CSC1c1ccc(F)cc1F` (stereo not shown) [Analog 3]: the IC50 in experiment [3] was 8.1 ± 0.4 µM; in experiment [4], 8.5 ± 0.3 µM.
`COc1cc(-c2nnc3[nH]ccn23)ccc1N1C(=O)CSC1c1ccc(C(F)(F)F)cc1` (stereo not shown) [Analog 10]: the IC50 in experiment [3] was 6.7 ± 0.2 µM; in experiment [4] it was 7.1 ± 0.1 µM. In addition, the “Mode of inhibition (enzyme kinetics)” value in experiment [5] was “competitive inhibitor”.
As to `COc1cc(-c2nnc3[nH]ccn23)ccc1N1C(=O)CSC1c1ccc(F)cc1O` (stereo not shown) [Analog 11], the IC50 in experiment [3] came to 8.3 ± 0.2 µM; in experiment [4] it was 8.6 ± 0.3 µM.
